Values of other authors in US4324553A, “Hair dyeing compositions containing at least one 2,4-diamino-alkylbenzene as coupler” (L'Oreal, priority 1979, dated 1982).

System: Salmonella typhimurium (TA 1538 and TA 98)
Details: Salmonella typhimurium TA 1538 and TA 98, with S9 mix induced by Aroclor 1254; prior-art statement

Compound	mutagenic activity as evaluated in the Ames test
Cc1ccc(N)cc1N [2,4-diaminotoluene]	very high mutagenic activity
CCc1ccc(N)cc1N [2,4-Diamino-ethylbenzene]	high mutagenic activity
